system: HCV 1b RLuc cells (dicistronic genotype 1b Con1 replicon); experiment: Renilla luciferase (RLuc)-based HCV replicon reporter assay; assay type: cell-based, HCV genotype 1b; conditions: Hepatitis C virus, 72 h, HCV 1b RLuc replicon, 72 hours; read-out: Activity (antiviral potency [EC50])
Method: Antiviral potency (EC50) was determined using a Renilla luciferase (RLuc)-based HCV replicon reporter assay. To perform the assay, HCV 1b RLuc cells (harboring a dicistronic genotype 1b Con1 replicon that encodes a RLuc reporter), or HCV 1a RLuc cells (harboring a dicistronic genotype 1a H77 replicon that encodes a RLuc reporter), were dispensed into 384-well plates. Compounds were re-suspended in DMSO at a concentration of 10 mM and serially diluted in DMSO using an automated pipeting instrument. Serially diluted compounds were mixed with cell culture media and added to the seeded cells. DMSO was used as a negative (solvent) control, and the protease inhibitor ITMN-191 was included at a concentration >100×EC50 as a positive control. 72 hours later, cells were lysed and Renilla luciferase activity quantified as recommended by the manufacturer (Promega-Madison, Wis.). Non-linear regression was performed to calculate EC50 values.
Biological data (antiviral potency [EC50] was determined using a Renilla luciferase (RLuc)-based HCV replicon reporter assay—HCV 1b RLuc) for representative compounds of the invention is provided in the following table. These compounds can be prepared using procedures similar to those described above.

Compound | EC50 [nM]
COC(=O)N[C@H](C(=O)N1CCC[C@H]1c1ncc(-c2ccc(-c3ccc(-c4ccc(-c5cnc([C@@H]6CCCN6C(=O)[C@@H](NC(=O)OC)C(C)C)[nH]5)cc4)cc3)cc2)[nH]1)C(C)C | 0.024
COC(=O)N[C@H](C(=O)N1CCC[C@H]1c1nc2ccc(-c3ccc4nc([C@@H]5CCCN5C(=O)[C@@H](NC(=O)OC)C(C)C)[nH]c4c3)cc2[nH]1)C(C)C | 35.5
COC(=O)N[C@H]1CC[C@H]2CC[C@@H](c3ncc(-c4ccc(-c5ccc(-c6cnc([C@@H]7CCCN7C(=O)[C@@H](NC(=O)OC)C(C)C)[nH]6)cc5)cc4)[nH]3)N2C1=O | 0.156
COC(=O)NC(C(=O)N1CCC[C@H]1c1ncc(-c2cc3sc(C#Cc4cnc([C@@H]5CCCN5C(=O)[C@@H](NC(=O)OC)C(C)C)[nH]4)cc3s2)[nH]1)C(C)C (some centres unmarked) | 0.0503
COC(=O)N[C@@H](C)C(=O)N1CCC[C@H]1c1ncc(-c2ccc(-c3ccc4cc(-c5cnc([C@@H]6[C@H]7CC[C@H](C7)N6C(=O)[C@@H](NC(=O)OC)C(C)C)[nH]5)ccc4c3)cc2)[nH]1 | 0.034
COC(=O)N[C@H](C(=O)N1CCC[C@H]1c1ncc(-c2ccc3cc(-c4ccc(-c5cnc([C@@H]6[C@H]7CC[C@H](C7)N6C(=O)[C@@H](NC(=O)OC)C(C)C)[nH]5)cc4)ccc3c2)[nH]1)C(C)C | 0.006
COC(=O)N[C@H](C(=O)N1CCC[C@H]1c1nc2ccc(-c3ccc4cc(-c5ccc6nc([C@@H]7CCCN7C(=O)[C@@H](NC(=O)OC)C(C)C)[nH]c6c5)ccc4c3)cc2[nH]1)C(C)C | < 0.0041
COC(=O)N[C@H](C(=O)N1C[C@@H](C#N)C[C@H]1c1ncc(-c2ccc(C#Cc3ccc(-c4cnc([C@@H]5CC(F)(F)CN5C(=O)[C@@H](NC(=O)OC)C(C)C)[nH]4)cc3)cc2)[nH]1)C(C)C | 0.018
COC(=O)N[C@H](C(=O)N1CCC[C@H]1c1ncc(-c2ccc3cc(-c4ccc(-c5cnc([C@@H]6CCCN6C(=O)[C@@H](Cc6ccccc6)NC(=O)OC)[nH]5)cc4)ccc3c2)[nH]1)C(C)C | 0.858
CC[C@H](NC(=O)OC)C(=O)N1C[C@@H](C#N)C[C@H]1c1ncc(-c2ccc3cc(-c4ccc(-c5cnc([C@@H]6CC7(CC7)CN6C(=O)[C@@H](NC(=O)OC)C(C)C)[nH]5)cc4)ccc3c2)[nH]1 | 0.0155
COC(=O)N[C@H](C(=O)N1CCC[C@H]1c1ncc(-c2ccc(-c3ccc(-c4cnc([C@@H]5CN(c6ccccc6)CN5C(=O)[C@@H](NC(=O)OC)C(C)C)[nH]4)cc3)cc2)[nH]1)C(C)C | 0.0074
COC(=O)N[C@H](C(=O)N1CCC[C@H]1c1ncc(-c2ccc3cc(-c4ccc(-c5cnc([C@@H]6CCCN6C(=O)[C@H](OC(=O)N(C)C)c6ccccc6)[nH]5)cc4)ccc3c2)[nH]1)C(C)C | 0.0083
COC(=O)N[C@@H](CCOC(F)F)C(=O)N1CCC[C@H]1c1ncc(-c2ccc(-c3ccc4cc(-c5cnc([C@@H]6CC7(CC7)CN6C(=O)[C@@H](NC(=O)OC)C(C)C)[nH]5)ccc4c3)cc2)[nH]1 | 0.0052
COC(=O)N[C@@H](C)C(=O)N1CCC[C@H]1c1ncc(-c2ccc3c(c2)sc2cc(-c4ccc5nc([C@@H]6[C@H]7CC[C@H](C7)N6C(=O)[C@H](C)NC(=O)OC)[nH]c5c4)ccc23)[nH]1 | 0.075
COC(=O)N[C@H](C(=O)N1CCC[C@H]1c1nc(C(=O)N2CCC3(CC2)CCN(C(=O)c2c[nH]c([C@@H]4CCCN4C(=O)[C@@H](NC(=O)OC)C(C)C)n2)CC3)c[nH]1)C(C)C | > 44.4
COC(=O)N[C@H](C(=O)N1CCC[C@H]1c1ncc(-c2ccc(-c3ccc(-c4ccc5nc([C@@H]6[C@H]7CC[C@H](C7)N6C(=O)[C@@H](NC(=O)OC)C(C)C)[nH]c5c4)cc3)cc2)[nH]1)C(C)C | 0.006
CC[C@H](C)[C@H](NC(=O)OC)C(=O)N1CCC[C@H]1c1ncc(C#Cc2ccc3cc(-c4cnc([C@@H]5CCCN5C(=O)[C@@H](NC(=O)OC)[C@@H](C)CC)[nH]4)ccc3c2)[nH]1 | 0.0147
COC(=O)N[C@H](C(=O)N1CC2(CC2)C[C@H]1c1ncc(-c2ccc(-c3ccc4cc(-c5cnc([C@@H]6[C@H]7CC[C@H](C7)N6C(=O)[C@@H](NC(=O)OC)C(C)C)[nH]5)ccc4c3)cc2)[nH]1)C(C)C | 0.0076
COC(=O)N[C@H](C(=O)N1CCC[C@H]1c1ncc(-c2ccc(C#Cc3ccc(-c4cnc([C@@H]5CN(CC(F)(F)F)CN5C(=O)[C@@H](NC(=O)OC)C(C)C)[nH]4)cc3)cc2)[nH]1)C(C)C | 0.0304
COC(=O)NC(C(=O)N1CCC[C@H]1c1ncc(-c2cc3sc(-c4ccc(-c5cnc([C@@H]6CCCN6C(=O)[C@H](NC(=O)OC)c6ccccc6)[nH]5)cc4)cc3s2)[nH]1)C(C)C (some centres unmarked) | 0.0059

Compound | EC50 [nM]
COC[C@@H]1C[C@@H](c2ncc(-c3ccc(-c4ccc5cc(-c6cnc([C@@H]7CC8(CC8)CN7C(=O)[C@@H](NC(=O)OC)C(C)C)[nH]6)ccc5c4)cc3)[nH]2)N(C(=O)[C@@H](NC(=O)OC)C(C)C)C1 | 0.0092
COC(=O)N[C@H](C(=O)N1[C@@H]2CC[C@@H](C2)[C@H]1c1nc2ccc(-c3ccc4c(c3)C(=O)c3cc(-c5cnc([C@@H]6CC7(CC7)CN6C(=O)[C@H](NC(=O)OC)C(C)C)[nH]5)ccc3-4)cc2[nH]1)C(C)C | 0.005
COC(=O)N[C@H](C(=O)N1CCC[C@H]1c1ncc(-c2ccc(C#Cc3ccc(-c4cnc([C@@H]5COCCN5C(=O)[C@@H](NC(=O)OC)C(C)C)[nH]4)cc3)cc2)[nH]1)C(C)C | 0.0198
CON[C@H](C(=O)N1CCC[C@H]1c1ncc(-c2ccc(-c3ccc4cc(-c5cnc([C@@H]6CCCN6C(=O)[C@@H](NC(=O)OC)C(C)C)[nH]5)ccc4c3)cc2)[nH]1)C(C)C | 0.525
COC(=O)N[C@H](C(=O)N1CC[C@H]1c1nc2ccc(-c3ccc(-c4ccc(-c5cnc([C@@H]6CCCN6C(=O)[C@H](NC(=O)OC)c6ccccc6)[nH]5)cc4)cc3)cc2[nH]1)C(C)C | 0.0195
COC(=O)N[C@H](C(=O)N1CCC[C@H]1c1ncc(-c2ccc(C#CC#Cc3ccc(-c4cnc([C@@H]5CCCN5C(=O)[C@@H](NC(=O)OC)C(C)C)[nH]4)cc3)cc2)[nH]1)C(C)C | 0.384
COCC[C@H](NC(=O)OC)C(=O)N1[C@@H]2CC[C@@H](C2)[C@H]1c1ncc(-c2ccc(-c3ccc4cc(-c5cnc([C@@H]6CC7(CC7)CN6C(=O)[C@@H](NC(=O)OC)C(C)C)[nH]5)ccc4c3)cc2)[nH]1 | 0.0119
COC(=O)NC(C(=O)N1CCC[C@H]1c1ncc(-c2ccc(-c3ccc4cc(-c5cnc([C@@H]6CCCN6C(=O)[C@@H](NC(=O)OC)C(C)C)[nH]5)ccc4c3)cc2)[nH]1)C1CCS(=O)(=O)CC1 (some centres unmarked) | 0.135
COC(=O)N[C@H](C(=O)N1CCC[C@H]1c1ncc(-c2ccc(-c3ccc(-c4cnc(CN5CC(=O)N[C@@H](C(C)C)C5=O)[nH]4)cc3)cc2)[nH]1)C(C)C | 0.513
COC(=O)N[C@H](C(=O)N1CCC[C@H]1c1ncc(-c2ccc(-n3ccc(-c4cnc([C@@H]5CCCN5C(=O)[C@@H](NC(=O)OC)C(C)C)[nH]4)cc3=O)cc2)[nH]1)C(C)C | 38.1
COC(=O)N[C@H](C(=O)N1CCC[C@H]1c1ncc(-c2ccc3cc(-c4ccc(-c5cnc([C@@H]6C[C@H](CNS(C)(=O)=O)CN6C(=O)[C@@H](NC(=O)OC)C(C)C)[nH]5)cc4)ccc3c2)[nH]1)C(C)C | 0.12
COC(=O)N[C@H](C(=O)N1CCC[C@H]1c1ncc(-c2ccc(-c3ccc(-c4cnc([C@@H]5CCCN5C(=O)[C@@H](NC(=O)OC)C(C)C)[nH]4)c(C#N)c3)cc2)[nH]1)C(C)C | 0.0192
COC(=O)N[C@H](C(=O)N1[C@@H]2CC[C@@H](C2)[C@H]1c1ncc(-c2ccc(-c3ccc4cc(-c5cnc([C@@H]6CC7(CC7)CN6C(=O)[C@H](NC(=O)OC)c6ccccc6)[nH]5)ccc4c3)cc2)[nH]1)C(C)C | 0.0394
COC(=O)N[C@H](C(=O)N1C[C@@H](C#N)C[C@H]1c1ncc(-c2ccc3c(c2)C(F)(F)c2cc(-c4ccc5nc([C@@H]6CC7(CC7)CN6C(=O)[C@@H](NC(=O)OC)C(C)C)[nH]c5c4)ccc2-3)[nH]1)C(C)C | 0.0064
COC(=O)N[C@H](C(=O)N1CCC[C@H]1c1ncc(-c2ccc3cc(-c4ccc5cc(-c6cnc([C@@H]7[C@H]8CC[C@H](C8)N7C(=O)[C@@H](NC(=O)OC)C(C)C)[nH]6)ccc5c4)ccc3c2)[nH]1)C(C)C | 0.28
COC(=O)N[C@H](C(=O)N1CCC[C@H]1c1ncc(-c2ccc3cc(-c4ccc(-c5cnc([C@@H]6CCCN6C(=O)[C@H](NC(=O)OC)C6CCOCC6)[nH]5)cc4)ccc3c2)[nH]1)C(C)C | 0.171
COC(=O)N[C@H](C(=O)N1CC2(CC2)C[C@H]1c1ncc(-c2ccc3cc(-c4ccc(-c5cnc([C@@H]6CCCN6C(=O)[C@@H](NC(=O)OC)C(C)OC)[nH]5)cc4)ccc3c2)[nH]1)C(C)C (some centres unmarked) | 0.0074
COC(=O)N[C@H](C(=O)N1CCC[C@H]1c1ncc(-c2ccc(-c3ccc(-c4cnc([C@@H]5CN(S(C)(=O)=O)CN5C(=O)[C@@H](NC(=O)OC)C(C)C)[nH]4)cc3)cc2)[nH]1)C(C)C | 0.0383
COC(=O)N[C@H](C(=O)N1CCC[C@H]1c1ncc(-c2ccc3c(c2)S(=O)(=O)c2ccc(-c4cnc([C@@H]5CCCN5C(=O)[C@@H](NC(=O)OC)C(C)C)[nH]4)cc2S3(=O)=O)[nH]1)C(C)C | 10.3
COC(=O)N[C@H](C(=O)N1CCC[C@H]1c1ncc(-c2ccc(-c3ccc(-c4ccc5nc([C@@H]6CCCN6C(=O)[C@@H](NC(=O)OC)C(C)C)[nH]c5c4)s3)cc2)[nH]1)C(C)C | 0.003

same assay, conditions: Hepatitis C virus, GETYPE1B, 72 h, HCV 1b RLuc replicon, 72 hours; read-out: Activity (antiviral potency [EC50])

Compound | EC50 [nM]
COC(=O)N[C@H](C(=O)N1CCC[C@H]1c1ncc(-c2ccc3cc(-c4cnc([C@@H]5CCCN5C(=O)[C@@H](NC(=O)OC)C(C)C)[nH]4)ccc3c2)[nH]1)C(C)C | 0.0511

Reference: patent US8822430B2 (Gilead Sciences, Inc., priority 2009, dated 2014)
